Source: patent publication US20260257998A1, “ERR MODULATORS” (University of Health Sciences and Pharmacy in St. Louis, priority 2023, published 2026)

Columns and labels:
[1] = biological target: T1, ERRα (Homo sapiens, UniProt P11474); assay: ERRE luciferase reporter assay in HEK293 cells transfected with pcDNA3.1 ERRα; assay type: cell-based; design: key to EC50 (ERRα): ***<1 μM; **1-5 μM; *>5 μM; i.a. (inactive); conditions: 24 hours treatment, luciferase activity
T1 construct: expressed in transfected cells; host or cells: HEK293
T1 sequence (P11474 1-423): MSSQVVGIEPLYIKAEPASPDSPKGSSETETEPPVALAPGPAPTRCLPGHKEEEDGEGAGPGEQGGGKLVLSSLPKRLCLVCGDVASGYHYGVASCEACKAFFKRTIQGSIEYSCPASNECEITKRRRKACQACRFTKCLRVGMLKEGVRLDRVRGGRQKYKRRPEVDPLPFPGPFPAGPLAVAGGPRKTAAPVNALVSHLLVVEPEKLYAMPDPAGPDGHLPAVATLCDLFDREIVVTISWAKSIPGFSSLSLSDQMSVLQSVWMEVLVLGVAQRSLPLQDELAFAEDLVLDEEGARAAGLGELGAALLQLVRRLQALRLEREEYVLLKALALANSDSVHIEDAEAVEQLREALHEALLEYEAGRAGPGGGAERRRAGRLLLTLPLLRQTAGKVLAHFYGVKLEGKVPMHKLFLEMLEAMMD
Description: (§1) HEK293 cells were maintained in Dulbecco's modified Eagles medium (DMEM) supplemented with 10% fetal bovine serum at 37° C. under 5% CO2. […] Cells were transfected with ERRE reporter construct and pcDNA3.1 ERRα or ERRγ. Twenty-four-hours post-transfection, the cells were treated with vehicle or compound (various concentrations) for 24 hours (4 wells per dose). Luciferase activity was measured using the One-Glo Tox luciferase reporter assay system (Promega) and […] were calculated using GraphPad Prism software.

[2] = biological target: T2, ERRγ (Homo sapiens, UniProt P62508); assay: ERRE luciferase reporter assay in HEK293 cells transfected with pcDNA3.1 ERRγ; assay type: cell-based; design: key to EC50 (ERRγ): ***<1 μM; **1-5 μM; *>5 μM; i.a. (inactive); conditions: 24 hours treatment, luciferase activity
T2 construct: expressed in transfected cells; host or cells: HEK293
T2 sequence (P62508 1-458): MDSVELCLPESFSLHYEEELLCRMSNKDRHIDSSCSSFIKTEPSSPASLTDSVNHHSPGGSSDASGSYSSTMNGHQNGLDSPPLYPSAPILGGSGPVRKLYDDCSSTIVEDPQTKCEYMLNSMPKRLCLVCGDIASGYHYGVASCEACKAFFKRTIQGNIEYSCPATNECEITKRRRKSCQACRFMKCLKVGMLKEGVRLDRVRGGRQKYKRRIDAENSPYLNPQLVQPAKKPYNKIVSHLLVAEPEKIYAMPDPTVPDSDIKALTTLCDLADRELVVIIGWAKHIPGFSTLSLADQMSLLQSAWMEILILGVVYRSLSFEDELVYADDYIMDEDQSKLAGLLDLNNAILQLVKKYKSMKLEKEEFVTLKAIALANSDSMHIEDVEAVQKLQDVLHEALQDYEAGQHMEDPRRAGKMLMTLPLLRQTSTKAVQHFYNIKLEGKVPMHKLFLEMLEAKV
Description: as §1

| SMILES | EC50 (ERRα) [1] | EC50 (ERRγ) [2] | EC50 [1] [µM] | EC50 [2] [µM] |
| --- | --- | --- | --- | --- |
| COc1ccc(C2=NNC(c3ccccc3O)C2)cc1 (centres unmarked) [Entry 42, 2-(3-(4-Methoxyphenyl)-4,5-dihydro-1H-pyrazol-5-yl)phenol] |  |  | < 1 | < 1 |
| Oc1ccccc1C1CC(c2cccnc2)=NN1 (centres unmarked) [Entry 26, 2-(3-(Pyridin-3-yl)-4,5-dihydro-1H-pyrazol-5-yl)phenol] |  |  | > 5 | > 5 |
| COc1cccc(C2=NN(C(C)=O)C(c3ccccc3O)C2)c1 (centres unmarked) [Entry 13, 1-(5-(2-Hydroxyphenyl)-3-(3-methoxyphenyl)-4,5-dihydro-1H-pyrazol-1-yl)ethan-1-one] | i.a. | i.a. |  |  |
| Oc1cccc(C2=NNC(c3cccc(O)c3)C2)c1 (centres unmarked) [Entry 3, 3,3′-(4,5-dihydro-1H-pyrazole-3,5-diyl)diphenol] |  |  | 1 to 5 | 1 to 5 |
| COc1ccc(C2=NNC(c3cccc(Cl)c3O)C2)cc1 (centres unmarked) [Entry 58, 2-chloro-6-(3-(4-methoxyphenyl)-4,5-dihydro-1H-pyrazol-5-yl)phenol] |  |  | 1 to 5 | 1 to 5 |
| Oc1ccccc1C1CC(c2cccs2)=NN1 (centres unmarked) [Entry 17, 2-(3-(Thiophen-2-yl)-4,5-dihydro-1H-pyrazol-5-yl)phenol] |  |  | > 5 | > 5 |
| Oc1ccccc1C1CC(c2cccc(F)c2)=NN1 (centres unmarked) [Entry 31, 2-(3-(3-Fluorophenyl)-4,5-dihydro-1H-pyrazol-5-yl)phenol] |  |  | 1 to 5 | > 5 |
| Oc1ccccc1C1CC(c2cccc(Br)c2)=NN1 (centres unmarked) [Entry 29, 2-(3-(3-Bromophenyl)-4,5-dihydro-1H-pyrazol-5-yl)phenol] |  |  | > 5 | > 5 |
| COc1ccccc1C1=NNC(c2ccccc2O)C1 (centres unmarked) [Entry 53, 2-(3-(2-Methoxyphenyl)-4,5-dihydro-1H-pyrazol-5-yl)phenol] |  |  | 1 to 5 | 1 to 5 |
| COc1cccc(C2=NNC(c3ccccc3O)C2)c1 (centres unmarked) [Entry 62, 2-(3-(3-methoxyphenyl)-4,5-dihydro-1H-pyrazol-5-yl)phenol] |  | i.a. | 1 to 5 |  |
| Oc1ccccc1C1CC(c2ccccc2OC(F)(F)F)=NN1 (centres unmarked) [Entry 4, 2-(3-(2-(trifluoromethoxy)phenyl)-4,5-dihydro-1H-pyrazol-5-yl)phenol] | i.a. | i.a. |  |  |
| Oc1ccccc1C1CC(c2ccccn2)=NN1 (centres unmarked) [Entry 25, 2-(3-(Pyridin-2-yl)-4,5-dihydro-1H-pyrazol-5-yl)phenol] |  |  | > 5 | > 5 |
| Oc1ccc(C2CC(c3ccc(Cl)cc3)=NN2)cc1 (centres unmarked) [Entry 7, 4-(3-(4-Chlorophenyl)-4,5-dihydro-1H-pyrazol-5-yl)phenol] |  |  | > 5 | > 5 |
| CC(=O)N1N=C(c2ccccc2Cl)CC1c1ccccc1O (centres unmarked) [Entry 16, 1-(3-(2-Chlorophenyl)-5-(2-hydroxyphenyl)-4,5-dihydro-1H-pyrazol-1-yl)ethan-1-one] | i.a. | i.a. |  |  |
| Oc1ccccc1C1CC(c2cc(C(F)(F)F)cc(C(F)(F)F)c2)=NN1 (centres unmarked) [Entry 6, 2-(3-(3,5-bis(trifluoromethyl)phenyl)-4,5-dihydro-1H-pyrazol-5-yl)phenol] | i.a. | i.a. |  |  |
| Oc1ccccc1C1=NNC(c2ccccc2O)C1 (centres unmarked) [Entry 30, 2,2′-(4,5-Dihydro-1H-pyrazole-3,5-diyl)diphenol] |  |  | > 5 | > 5 |

The remaining lines, values ahead:

| EC50 (ERRα) [1] | EC50 (ERRγ) [2] | EC50 [1] [µM] | EC50 [2] [µM] | SMILES |
| --- | --- | --- | --- | --- |
| i.a. | i.a. |  |  | Cc1ccc(C2CC(c3cc(C(F)(F)F)cc(C(F)(F)F)c3)=NN2)c(O)c1 (centres unmarked) [Entry 65, 2-(3-(3,5-bis(trifluoromethyl)phenyl)-4,5-dihydro-1H-pyrazol-5-yl)-5-methylphenol] |
| i.a. | i.a. |  |  | Oc1ccc2cc(C3CC(c4ccc(Br)cc4)=NN3)ccc2c1 (centres unmarked) [Entry 93, 6-(3-(4-bromophenyl)-4,5-dihydro-1H-pyrazol-5-yl)naphthalen-2-ol] |
|  |  | 1 to 5 | 1 to 5 | Oc1cccc(C2=NNC(c3ccc(Br)cc3)C2)c1 (centres unmarked) [Entry 108, 3-(5-(4-bromophenyl)-4,5-dihydro-1H-pyrazol-3-yl)phenol] |
|  |  | 1 to 5 | 1 to 5 | Oc1ccc2cc(C3CC(c4ccccc4F)=NN3)ccc2c1 (centres unmarked) [Entry 107, 6-(3-(2-fluorophenyl)-4,5-dihydro-1H-pyrazol-5-yl)naphthalen-2-ol] |
| i.a. |  |  | 1 to 5 | COc1cccc(C2CC(c3ccc(C(F)(F)F)cc3)=NN2)c1O (centres unmarked) [Entry 64, 2-methoxy-6-(3-(4-(trifluoromethyl)phenyl)-4,5-dihydro-1H-pyrazol-5-yl)phenol] |
| i.a. | i.a. |  |  | Clc1ccc(C2=NNC(c3ccc(Br)cc3)C2)cc1 (centres unmarked) [Entry 112, 5-(4-bromophenyl)-3-(4-chlorophenyl)-4,5-dihydro-1H-pyrazole] |
| i.a. | i.a. |  |  | Brc1ccc(C2=NNC(c3ccc(Br)cc3)C2)cc1 (centres unmarked) [Entry 113, 3,5-bis(4-bromophenyl)-4,5-dihydro-1H-pyrazole] |
| i.a. | i.a. |  |  | FC(F)(F)c1cccc(C2=NNC(c3ccc4ccccc4c3)C2)c1 (centres unmarked) [Entry 83, 5-(naphthalen-2-yl)-3-(3-(trifluoromethyl)phenyl)-4,5-dihydro-1H-pyrazole] |
|  |  | > 5 | > 5 | Oc1ccc(C2=NNC(c3ccc(Br)cc3)C2)cc1 (centres unmarked) [Entry 89, 4-(5-(4-bromophenyl)-4,5-dihydro-1H-pyrazol-3-yl)phenol] |
| i.a. | i.a. |  |  | Clc1ccc(C2=NNC(c3ccc4ccccc4c3)C2)cc1 (centres unmarked) [Entry 104, 3-(4-chlorophenyl)-5-(naphthalen-2-yl)-4,5-dihydro-1H-pyrazole] |
|  |  | < 1 | < 1 | Fc1ccccc1C1=NNC(c2ccc3ccccc3c2)C1 (centres unmarked) [Entry 106, 3-(2-fluorophenyl)-5-(naphthalen-2-yl)-4,5-dihydro-1H-pyrazole] |
| i.a. | i.a. |  |  | Oc1ccc(C2CC(c3cccc(C(F)(F)F)c3)=NN2)cc1 (centres unmarked) [Entry 82, 4-(3-(3-(trifluoromethyl)phenyl)-4,5-dihydro-1H-pyrazol-5-yl)phenol] |
| i.a. | i.a. |  |  | Oc1cc(Br)ccc1C1CC(c2ccc(C(F)(F)F)cc2)=NN1 (centres unmarked) [Entry 119, 5-bromo-2-(3-(4-(trifluoromethyl)phenyl)-4,5-dihydro-1H-pyrazol-5-yl)phenol] |
|  |  | 1 to 5 | > 5 | Oc1cccc(C2=NNC(c3ccccc3O)C2)c1 (centres unmarked) [Entry 96, 2-(3-(3-hydroxyphenyl)-4,5-dihydro-1H-pyrazol-5-yl)phenol] |
| i.a. | i.a. |  |  | Brc1ccc(C2=NNC(c3ccc4ccccc4c3)C2)cc1 (centres unmarked) [Entry 81, 3-(4-bromophenyl)-5-(naphthalen-2-yl)-4,5-dihydro-1H-pyrazole] |
|  |  | 1 to 5 | 1 to 5 | Oc1ccccc1C1CC(c2cccc(Cl)c2)=NN1 (centres unmarked) [Entry 142, 2-(3-(3-chlorophenyl)-4,5-dihydro-1H-pyrazol-5-yl)phenol] |
| i.a. | i.a. |  |  | Clc1ccc(C2CC(c3ccccc3Br)=NN2)cc1Cl (centres unmarked) [Entry 111, 3-(2-bromophenyl)-5-(3,4-dichlorophenyl)-4,5-dihydro-1H-pyrazole] |
| i.a. | i.a. |  |  | Oc1cc(Br)ccc1C1CC(c2ccc(Br)cc2)=NN1 (centres unmarked) [Entry 118, 5-bromo-2-(3-(4-bromophenyl)-4,5-dihydro-1H-pyrazol-5-yl)phenol] |
| i.a. | i.a. |  |  | CC(C)(C)c1cc(C2CC(c3ccc(Br)cc3)=NN2)c(O)c(C(C)(C)C)c1 (centres unmarked) [Entry 115, 2-(3-(4-bromophenyl)-4,5-dihydro-1H-pyrazol-5-yl)-4,6-di-tert-butylphenol] |
|  |  | > 5 | 1 to 5 | Oc1ccccc1C1=NNC(c2ncc[nH]2)C1 (centres unmarked) [Entry 92, 2-(5-(1H-imidazol-2-yl)-4,5-dihydro-1H-pyrazol-3-yl)phenol] |
| i.a. | i.a. |  |  | Fc1ccc(C2=NNC(c3ccc4ccccc4c3)C2)cc1 (centres unmarked) [Entry 91, 3-(4-fluorophenyl)-5-(naphthalen-2-yl)-4,5-dihydro-1H-pyrazole] |
